Assay results taken from paper PMC6278656, “Synthesis and Biological Evaluation of Phaeosphaeride A Derivatives as Antitumor Agents” (Molecules, 2018).

Columns and labels:
[1] = system: human multiple myeloma RPMI8226 cells; test: MTT cytotoxicity assay, RPMI8226; format: cell-based; details: for IC50: Homo sapiens, RPMI-8226, MTT, 72 h, n = 3, ± SD, read-out: Suspension Cell Cultures, IC50 RPMI8228
Method: (§1) All newly synthesized PPA derivatives 1–8 were evaluated for their anti-proliferative activity against human breast cancer MCF-7, human prostate adenocarcinoma PC-3, human colorectal cancer HCT-116, human lung cancer A549, human chronic myelogenous leukemia K562, human acute monocytic leukemia THP-1, human multiple myeloma RPMI8226, human acute T-cell leukemia Jurkat, human multiple myeloma NCI-H929, and human embryonic fibroblasts HEF cell lines by MTT assays. All cells were incubated with different concentrations of PPA derivatives for 72 h, with etoposide and PPA used as reference compounds. The anticancer activity of the tested compounds was described as the concentration of drug inhibiting 50% cell growth IC50 (Table 1 and Table 2).
(§2) ^1H-NMR spectra were acquired on an AVANCE III 400 MHz NMR spectrometer (Bruker, Rheinstetten, Germany) in CDCl3. Optical rotations were acquired on a Polaar 3005 Polarimeter (Optical Activity, Huntingdon, Great Britain) using a 2.5 cm cell with a Na 589 nm filter and the concentration of samples was denoted as c. Mass spectra data were acquired on a TSQ Quantum Access Max Mass spectrometer (Thermo Fisher Scientific, Waltham, MA, USA). High-resolution mass spectra (HRMS) were acquired on a LTQ Orbitrap Velos spectrometer (Thermo Scientific) and on a Bruker MicrOTOF. FTIR spectra were acquired on an IR Affinity-1 spectrometer (Shimadzu, Thermo Scientific). Organic solvents used were dried by standard methods when necessary. Commercially available reagents were used without further purification. All reactions were monitored by TLC with silica gel coated plates (EMD/Merck KGaA, Darmstadt, Germany), with visualization by UV light and by charring with 0.1% ninhydrin in EtOH. Column chromatography was performed using Merck 60 Å 70–230 mesh silica gel. The optical density was determined using a Multiskan FC spectrophotometer (Thermo Scientific) at a wavelength of 540 nm when using the MTT assay.
(§3) MCF-7 (breast cancer), PC-3 (prostate adenocarcinoma), HCT-116 (colorectal cancer cell), A549 (lung cancer), K562 (chronic myelogenous leukemia), THP-1 (acute monocytic leukemia), and RPMI8226 (multiple myeloma), Jurkat (acute T-cell leukemia), HEF (human embryonic fibroblasts) was purchased from the Russian Academy of Sciences Cells Bank (Institute of Cytology of the Russian Academy of Sciences, Saint Petersburg, Russian Federation). Multiple myeloma cell line NCI-H929 was purchased from ATCC (USA). The MCF-7, A549 and HEF (human embryonic fibroblasts) were cultured in DMEM medium. Other cell lines were cultured in RPMI1640 medium, (PanEco, Russia) supplemented with 10% fetal bovine serum (GE Healthcare LifeSciences, São Paulo, Brazil), and gentamicin at a concentration of 40 μg/mL and cultured at 37 °C in a humidified atmosphere containing 5% CO2. All experiments were performed with cells at passages 3 to 7 in the logarithmic phase of growth.
(§4) Cells were seeded into 96-well plates of 5 × 10^3 for adhesive cultures and 20 × 10^3 for suspension cultures per well in 90 μL and 135 μL of culture medium, respectively. The test substances were dissolved in DMSO to a concentration of 1 × 10^−2 M. For subsequent dilution of the substances, a serum-free culture medium was used as the diluent. Final concentration of DMSO in wells was no more than 1%. […] Substances were added to the cells in 3–4 replicates after 24 h for adhesive cultures and immediately for suspension cultures. 10–15 μL of serum-free medium was added to the control wells with non-exposed cells. Cells were cultured for 72 h at 37 °C in an atmosphere of 5% CO2.

[2] = system: human lung cancer A549 cells; test: MTT cytotoxicity assay, A549; format: cell-based; details: 72 h, n = 3, ± SD, read-out: Adhesive Cell Cultures, IC50 A549
Method: as §1, §2, §3, §4

[3] = system: human acute T-cell leukemia Jurkat cells; test: MTT cytotoxicity assay, Jurkat; format: cell-based; details: for IC50: Homo sapiens, MTT, 72 h, n = 3, ± SD, read-out: Suspension Cell Cultures, IC50 Jurkat
Method: as §1, §2, §3, §4

[4] = system: human multiple myeloma NCI-H929 cells; test: MTT cytotoxicity assay, NCI-H929; format: cell-based; details: for IC50: Homo sapiens, MTT, 72 h, n = 3, ± SD, read-out: Suspension Cell Cultures, IC50 NCI-Н929
Method: as §1, §2, §3, §4

[5] = system: mice; test: Acute intraperitoneal toxicity study; format: in vivo
Method: (§5) Six to eight-week-old outbreed male mice were purchased from the Rappolovo Animal Farm of the Russian Academy of Sciences. Animals were group housed in solid bottom polycarbonate cages (3–5 animals/cage) and provided with sterilized pelleted food and pure water ad libitum.
(§6) Thirty mice were randomly assigned to the acute toxicity study. Animals in experimental groups ([…]) received a dose formulation containing compound 6 solution in 5% DMSO at various dosages (8.25, 82.5 and 200 mg/kg) via single i.p. injection. Mice in the control group treated with vehicle (5% DMSO). The location of the i.p. injection was in the lower left abdominal quadrant. […] After treatments, the following parameters and end points were evaluated for 14 days: mortality, clinical signs, body weight, food consumption, locomotion, salivation, diarrhea, and lethargy. The maximum tolerated dose in this study is defined as the highest dose that will be tolerated and not produce major life-threatening toxicity for the study duration. All experimental procedures were performed according to the principles and guidelines for the care and use of laboratory animals. The animals were sacrificed by carbon dioxide asphyxiation and cervical dislocation. All efforts were made to minimize suffering. Post mortem evaluation included gross examination for all animals at terminal necropsy and calculation of organ mass coefficients. No histopathological examinations were performed.

[6] = Acute intraperitoneal toxicity study; format: in vivo; details: male, outbred (printed 'outbreed'), mouse, in vivo, ip, mice, single i.p. injection, 14 days
Method: as §5, §6

[7] = system: human acute monocytic leukemia THP-1 cells; test: MTT cytotoxicity assay, THP-1; format: cell-based; details: 72 h, n = 3, ± SD, read-out: Suspension Cell Cultures, IC50 THP-1
Method: as §1, §2, §3, §4

[8] = system: human embryonic fibroblasts HEF; test: MTT cytotoxicity assay, HEF (control cells); format: cell-based; details: Fibroblast, 72 h, n = 3, ± SD, read-out: Adhesive Cell Cultures, IC50 HEF
Method: as §1, §2, §3, §4

[9] = system: human breast cancer MCF-7 cells; test: MTT cytotoxicity assay, MCF-7; format: cell-based; details: MCF7, 72 h, n = 3, ± SD, read-out: Adhesive Cell Cultures, IC50 MCF-7
Method: as §1, §2, §3, §4

[10] = system: human prostate adenocarcinoma PC-3 cells; test: MTT cytotoxicity assay, PC-3; format: cell-based; details: for IC50: Homo sapiens, MTT, 72 h, n = 3, ± SD, read-out: Adhesive Cell Cultures, IC50 PC-3
Method: as §1, §2, §3, §4

[11] = system: human colorectal cancer HCT-116 cells; test: MTT cytotoxicity assay, HCT-116; format: cell-based; details: for IC50: Homo sapiens, MTT, 72 h, n = 3, ± SD, read-out: Adhesive Cell Cultures, IC50 HCT-116
Method: as §1, §2, §3, §4

[12] = system: human chronic myelogenous leukemia K562 cells; test: MTT cytotoxicity assay, K562; format: cell-based; details: for IC50: Homo sapiens, MTT, 72 h, n = 3, ± SD, read-out: Suspension Cell Cultures, IC50 К562
Method: as §1, §2, §3, §4

[13] = system: mice; design: method as in RTECS # KC0190000; details: i.p., ref RTECS # KC0190000; cited from earlier work

Structure (SMILES) | IC50 [1] [nM] | IC50 [2] [nM] | IC50 [3] [nM] | IC50 [4] [nM] | IC50 [7] [nM] | IC50 [8] [nM] | IC50 [9] [nM] | IC50 [10] [nM] | IC50 [11] [nM] | IC50 [12] [nM] | also measured
C=C1C2=C(C(=O)N1OC)[C@@H](N1CCCC1)[C@@](C)(O)[C@H](CCCCC)O2 [Compound 6, (2S,3R,4R)-3-Hydroxy-6-methoxy-3-methyl-7-methylene-2-pentyl-4-pyrrolidin-1-yl-3,4,6,7-tetrahydro-pyrano[2,3-c]pyrrol-5(2H)-one] | 630 ± 230 | 10100 ± 500 | 550 ± 290 | 230 ± 20 | 2050 ± 210 | 4000 ± 170 | 3250 ± 640 | 200 ± 70 | 470 ± 10 | 540 ± 30 | fold increase in anticancer activity comparative to etoposide ([1]; RPMI8226): 7 fold; fold stronger than the reference compound PPA ([1]; RPMI8226): 14.5 fold; fold increase in anticancer activity comparative to etoposide [3]: 1.5 fold; fold stronger than the reference compound PPA [3]: 17.5 fold; fold increase in anticancer activity comparative to etoposide [4]: 4 fold; fold stronger than the reference compound PPA [4]: 28 fold; toxicity in vivo comparative to etoposide ([5]; mice, i.p.): less toxic; effect on mean body weight or mass coefficients (spleen, liver, heart, kidney, lung, thymus, and adrenal) ([5]; mouse, in vivo, ip): No effect; gross abnormalities in the organs tested ([5]; mouse, in vivo, ip): No gross abnormalities; LD50 at 14 days ([6]; not determined, believed to be more than, read-out: Median lethal dose (LD50)): > 200 mg/kg; MTD at 14 days ([6]; read-out: Maximum tolerated dose): ≥ 82.5 mg/kg; fold increase in anticancer activity comparative to etoposide [10]: 13.5 fold; fold stronger than the reference compound PPA [10]: 160 fold; fold increase in anticancer activity comparative to etoposide [11]: 47 fold; fold stronger than the reference compound PPA [11]: 51 fold; fold increase in anticancer activity comparative to etoposide [12]: 16 fold; fold stronger than the reference compound PPA [12]: 37 fold
COc1cc([C@@H]2c3cc4c(cc3[C@@H](O[C@@H]3O[C@@H]5CO[C@@H](C)O[C@H]5[C@H](O)[C@H]3O)[C@H]3COC(=O)[C@H]23)OCO4)cc(OC)c1O [Etoposide, etoposide, reference compound] | 4600 ± 280 | > 100000 | 880 ± 740 | 920 ± 30 | 830 ± 210 | > 100000 | 9600 ± 270 | 2700 ± 50 | 22000 ± 1100 | 8470 ± 950 | Intraperitoneal LD50 [13]: 64 mg/kg
